Strand notation (5' to 3'): a small letter for the sugar, then the base; units joined by * are phosphorothioate-linked, units joined directly phosphodiester-linked; [ ] holds rarer units or linkages, { } end groups; capitals alone tell only the bases. e = 2'-O-(2-methoxyethyl) (MOE); k = constrained ethyl (cEt); [5mC] = 5-methylcytosine; d = 2'-deoxy (DNA); m = 2'-O-methyl
Test system: Yap1 mRNA
Experiment: Antisense inhibition of human Yap1 in SNU-449 cells by modified oligonucleotides, single dose (Example 5, RTS36584)
Assay type: cell-based
Outline: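 Free uptake, 2,000 nM, ~48 h, SNU-449 at 10,000 cells/well. Read-out: qRT-PCR (RTS36584), RIBOGREEN-normalised, expressed as % UTC. Asterisk = oligo hits amplicon region.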

[1] = Table 40 (separate experiment), SNU-449 cells, 10,000 cells per well, free uptake, 2,000 nM oligonucleotide, approx. 48 hours, RTS36584, normalized to RIBOGREEN, Yap1 mRNA relative to untreated control
[2] = Table 43 experiment, SNU-449 cells, 10,000 cells per well, free uptake, 2,000 nM, approximately 48 hours, RTS36584, Yap1 mRNA normalized to RIBOGREEN, relative to untreated control cells
[3] = Yap1 mRNA, percent of untreated control, modified oligonucleotides targeting SEQ ID NO: 1 and 2, Table 47
[4] = Table 42 (separate experiment), SNU-449 cells, 10,000 cells per well, free uptake, 2,000 nM modified oligonucleotide, approximately 48 hours, RTS36584, normalized to RIBOGREEN, Yap1 mRNA relative to untreated control cells
[5] = Table 41, SNU-449 cells, 10,000 cells per well, free uptake, 2,000 nM modified oligonucleotide, approximately 48 hours, RTS36584, normalized to RIBOGREEN, Yap1 mRNA relative to untreated control cells
[6] = Table 45, Yap1 mRNA as percent of untreated control, SNU-449 cells, single dose
[7] = Table 50, Yap1 mRNA remaining as percent of untreated control (UT), SNU-449 cells, single dose
[8] = Table 49, Yap1 mRNA level relative to untreated control, modified oligonucleotides targeting SEQ ID NO.: 1 and 2
[9] = Table 51, Yap1 mRNA remaining as percent of untreated control (UT), SNU-449 cells, single dose
[10] = Table 52, Yap1 mRNA, modified oligonucleotides targeting SEQ ID NO: 1 and 2
[11] = Table 48, Yap1 mRNA level relative to untreated control, modified oligonucleotides targeting SEQ ID NO.: 1 and 2
[12] = Table 39, SNU-449 cells, 10,000 cells per well, free uptake, 2,000 nM oligonucleotide, approx. 48 hours, RTS36584, normalized to RIBOGREEN, Yap1 mRNA relative to untreated control

Substance: 1198744 (kA*e[5mC]*kT*dT*dT*dT*dA*d[5mC]*dA*dT*dT*dA*eG*eG*kA*kA; antisense) [Compound 1198744]
- YAP1 (% UTC) [1]: 66 % UTC

Substance: 1198271 (kT*kT*dA*dA*dA*dG*dT*dG*dT*dA*dT*eG*eT*e[5mC]*kA*kG) [Compound 1198271]
- YAP1 (% UTC) [2]: 44 % UTC

Substance: 1074463 (kT*kA*kG*dA*dG*dT*dA*dT*dG*dT*dG*dG*d[5mC]*kA*kA*kT; antisense) [Compound 1074463]
- YAP1 (% UT) [3]: 20 % UT

Substance: 1198227 (kA*kG*d[5mC]*dA*d[5mC]*dT*dT*dT*dT*dA*d[5mC]*eA*eT*eT*kA*kG; antisense) [Compound 1198227]
- YAP1 (% UTC) [4]: 104 % UTC

Substance: 1198734 (kA*eG*kG*dT*dA*dT*dA*dA*d[5mC]*dT*dG*dG*eG*e[5mC]*kA*kA; antisense) [Compound 1198734]
- YAP1 (% UTC) [5]: 29 % UTC

Substance: 1198640 (kT*kT*dA*dG*dA*dG*dT*dA*dT*dG*dT*dG*kG*e[5mC]*kA*eA; antisense) [Compound 1198640]
- YAP1 (% UTC) [5]: 26 % UTC

Substance: 1198475 (antisense kG*kG*dT*dA*dT*dA*dA*d[5mC]*dT*dG*dG*eG*k[5mC]*eA*kA*eA) [Compound 1198475]
- YAP1 (% UTC) (Table 44 experiment, SNU-449 cells, 10,000 cells per well, free uptake, 2,000 nM, approximately 48 hours, RTS36584, Yap1 mRNA normalized to RIBOGREEN, relative to untreated control cells): 25 % UTC

Substance: 1197209 (antisense kT*kG*kT*dA*dA*dT*dA*dT*dT*dG*d[5mC]*dA*dA*kT*k[5mC]*kT) [Compound 1197209]
- YAP1 (% UT) [3]: 33 % UT

Substance: 1198244 (kA*kG*dA*dT*dT*dT*dA*dG*dG*dA*dT*eG*e[5mC]*eA*kT*kG; antisense) [Compound 1198244]
- YAP1 (% UTC) [2]: 24 % UTC

Substance: 1095509 (antisense kT*kG*dA*dG*dG*dT*dA*dT*dA*dA*d[5mC]*kT*dG*kG*dG*k[5mC]) [Compound 1095509]
- YAP1 (% UTC) [6]: 29 % UTC

Substance: 1198262 (kT*kG*dT*dA*dA*dT*dA*dT*dT*dG*d[5mC]*eA*eA*eT*k[5mC]*kT; antisense) [Compound 1198262]
- YAP1 (% UTC) [2]: 114 % UTC

Substance: 1198870 (kT*kA*dT*dG*dT*dA*dA*dT*dA*dT*dT*kG*e[5mC]*kA*eA*kT; antisense) [Compound 1198870]
- YAP1 (% UT) (Table 46, Yap1 mRNA as percent of untreated control, SNU-449 cells, single dose): 86 % UT

Substance: 1198949 (kA*kT*dT*dG*d[5mC]*dA*dA*dT*d[5mC]*dT*dG*kT*d[5mC]*kT*dG*kA; antisense) [Compound 1198949]
- YAP1 (% UTC) [6]: 61 % UTC

Substance: 1198627 (kT*kT*kA*dG*dA*d[5mC]*dT*dA*dA*dG*dT*dA*kA*kG*kG*eT; antisense) [Compound 1198627]
- YAP1 (% UT) [7]: 39 % UT

Substance: 1095593 (antisense kT*kG*dA*dG*dG*dT*dA*dT*dA*dA*d[5mC]*eT*eG*eG*kG*k[5mC]) [Compound 1095593]
- YAP1 (% UTC) [2]: 16 % UTC

Substance: 1198664 (antisense kG*k[5mC]*dT*dT*dT*dG*dG*dA*dA*dG*dA*dT*k[5mC]*eT*kG*eA) [Compound 1198664]
- YAP1 (% UTC) [5]: 18 % UTC

Substance: 1095463 (antisense kA*k[5mC]*dT*dG*dA*dG*dG*dT*dA*dT*dA*dA*k[5mC]*eT*kG*eG) [Compound 1095463]
- YAP1 (% UTC) [4]: 37 % UTC

Substance: 1198202 (kG*kA*dA*dA*dT*dT*dG*dT*d[5mC]*dT*d[5mC]*eA*eT*eG*k[5mC]*k[5mC]; antisense) [Compound 1198202]
- YAP1 (% UTC) [4]: 14 % UTC

Substance: 1198745 (k[5mC]*eA*k[5mC]*dT*dT*dT*dT*dA*d[5mC]*dA*dT*dT*eA*eG*kG*kA; antisense) [Compound 1198745]
- YAP1 (% UTC) [1]: 57 % UTC

Substance: 1198697 (antisense kA*kG*dT*dG*dT*dA*dT*dG*dT*d[5mC]*dA*dG*kA*eA*kG*eA) [Compound 1198697]
- YAP1 (% UTC) [4]: 12 % UTC

Substance: 1198799 (antisense k[5mC]*eT*kA*dA*dG*dT*dA*dA*dG*dG*dT*dT*eT*e[5mC]*k[5mC]*k[5mC]) [Compound 1198799]
- YAP1 (% UTC) [1]: 18 % UTC

Substance: 1198566 (antisense kT*kT*kT*dT*dA*d[5mC]*dA*dT*dT*dA*dG*dG*kA*kA*k[5mC]*eA) [Compound 1198566]
- YAP1 (% UT) [8]: 83 % UT

Substance: 1197276 (k[5mC]*kT*kA*dA*mG*dT*dA*dA*dG*dG*dT*dT*dT*k[5mC]*k[5mC]*k[5mC]; antisense) [Compound 1197276]
- YAP1 (% UT) [9]: 44 % UT

Substance: 1200813 (k[5mC]*kT*kT*dT*dT*mA*d[5mC]*dA*dT*dT*dA*dG*dG*kA*kA*k[5mC]; antisense) [Compound 1200813]
- YAP1 (% UT) [10]: 58 % UT

Substance: 1197293 (k[5mC]*kA*k[5mC]*dT*mU*dT*dT*dA*d[5mC]*dA*dT*dT*dA*kG*kG*kA; antisense) [Compound 1197293]
- YAP1 (% UT) [7]: 94 % UT

Substance: 1198318 (kT*kT*kT*dG*dG*dA*dA*dG*dA*dT*d[5mC]*dT*kG*eA*kA*eA; antisense) [Compound 1198318]
- YAP1 (% UT) [11]: 120 % UT

Substance: 1198198 (kT*kG*dT*d[5mC]*dT*d[5mC]*dA*dT*dG*d[5mC]*d[5mC]*eT*eT*eA*kT*kA; antisense) [Compound 1198198]
- YAP1 (% UTC) [4]: 29 % UTC

Substance: 1198399 (kA*dG*d[5mC]*dA*d[5mC]*dT*dT*dT*dT*dA*d[5mC]*kA*eT*kT*eA*kG; antisense) [Compound 1198399]
- YAP1 (% UTC) [12]: 35 % UTC

Substance: 1198435 (kA*dT*dG*dT*dA*dA*dT*dA*dT*dT*dG*k[5mC]*eA*kA*eT*k[5mC]; antisense) [Compound 1198435]
- YAP1 (% UTC) [12]: 57 % UTC

Substance: 1198465 (antisense kA*kG*dT*dA*dT*dG*dT*dG*dG*d[5mC]*dA*eA*kT*eA*kA*eT) [Compound 1198465]
- YAP1 (% UTC) [2]: 68 % UTC

Substance: 1198691 (antisense kG*kT*dA*dA*dT*dA*dT*dT*dG*d[5mC]*dA*dA*kT*e[5mC]*kT*eG) [Compound 1198691]
- YAP1 (% UTC) [5]: 38 % UTC

Substance: 1200845 (k[5mC]*kA*kA*d[5mC]*dT*mC*dT*dT*dA*dT*dA*dT*dG*kG*kT*kT; antisense) [Compound 1200845]
- YAP1 (% UT) [10]: 100 % UT

Substance: 1198265 (kT*kT*dT*dA*dT*dG*dT*dA*dA*dT*dA*eT*eT*eG*k[5mC]*kA; antisense) [Compound 1198265]
- YAP1 (% UTC) [2]: 111 % UTC

Substance: 1097224 (antisense k[5mC]*kT*k[5mC]*dT*dT*dA*dT*dA*dT*dG*dG*dT*dT*kT*kT*kG) [Compound 1097224]
- YAP1 (% UT) [11]: 22 % UT

Substance: 1197258 (antisense kA*kT*kT*d[5mC]*mA*dG*dA*dT*dT*dT*dA*dG*dG*kA*kT*kG) [Compound 1197258]
- YAP1 (% UT) [9]: 57 % UT

Substance: 1198412 (kT*dT*dA*dG*dG*dA*dT*dG*d[5mC]*dA*dT*kG*eG*kT*eT*kT; antisense) [Compound 1198412]
- YAP1 (% UTC) [12]: 17 % UTC

Substance: 1198308 (kT*kT*kT*dT*dA*d[5mC]*dA*dT*dT*dA*dG*dG*kA*eA*k[5mC]*eA; antisense) [Compound 1198308]
- YAP1 (% UT) [11]: 68 % UT

Substance: 1198972 (kA*k[5mC]*dT*dA*dA*dG*dT*dA*dA*dG*dG*kT*dT*kT*d[5mC]*k[5mC]; antisense) [Compound 1198972]
- YAP1 (% UTC) [6]: 46 % UTC

Substance: 1198677 (antisense kA*kT*dT*d[5mC]*dA*dG*dA*dT*dT*dT*dA*dG*kG*eA*kT*eG) [Compound 1198677]
- YAP1 (% UTC) [5]: 87 % UTC

Substance: 1198646 (kT*kA*dT*dA*dA*d[5mC]*dT*dG*dG*dG*d[5mC]*dA*kA*eA*kT*eT) [Compound 1198646]
- YAP1 (% UTC) [4]: 80 % UTC

Substance: 1197254 (antisense kT*kT*kA*dG*mG*dA*dT*dG*d[5mC]*dA*dT*dG*dG*kT*kT*kT) [Compound 1197254]
- YAP1 (% UT) [9]: 51 % UT

Substance: 1198975 (kT*kT*dA*dG*dA*d[5mC]*dT*dA*dA*dG*dT*kA*dA*kG*dG*kT; antisense) [Compound 1198975]
- YAP1 (% UTC) [6]: 52 % UTC

Substance: 1198875 (kA*kA*dA*dG*dT*dG*dT*dA*dT*dG*dT*k[5mC]*eA*kG*eA*kA; antisense) [Compound 1198875]
- YAP1 (% UT) [3]: 5 % UT

Substance: 1198755 (kT*eG*k[5mC]*dT*dT*dT*dG*dG*dA*dA*dG*dA*eT*e[5mC]*kT*kG) [Compound 1198755]
- YAP1 (% UTC) [1]: 32 % UTC

Substance: 1198256 (kG*kA*d[5mC]*dA*dA*d[5mC]*dT*d[5mC]*dT*dT*dA*eT*eA*eT*kG*kG; antisense) [Compound 1198256]
- YAP1 (% UTC) [2]: 78 % UTC

Substance: 1197243 (antisense kA*kA*k[5mC]*dA*mC*dT*dG*dA*dG*dG*dT*dA*dT*kA*kA*k[5mC]) [Compound 1197243]
- YAP1 (% UT) [9]: 81 % UT

Substance: 1095399 (antisense k[5mC]*dA*d[5mC]*dT*dG*dA*dG*dG*dT*dA*dT*kA*eA*k[5mC]*eT*kG) [Compound 1095399]
- YAP1 (% UTC) [12]: 46 % UTC

Substance: 1197312 (kT*kG*kT*dA*mU*dG*dT*d[5mC]*dA*dG*dA*dA*dG*kA*kG*kT; antisense) [Compound 1197312]
- YAP1 (% UT) [9]: 10 % UT

Substance: 1198583 (antisense kA*kG*kG*dA*dT*dG*d[5mC]*dA*dT*dG*dG*dT*kT*kT*kT*eT) [Compound 1198583]
- YAP1 (% UT) [8]: 27 % UT
